Tests used:
ABUTH (Velvetleaf) [1] = assay: Postemergence herbicidal evaluation; format: in vivo, Abutilon theophrasti; conditions: postemergence
How it was run: (§1)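 ~2-wk seedlings; postemergence spray, 40 psi; vehicle 1:1 acetone:water + 0.5% Tween 20; rate ≈0.0156–0.500 kg/ha; greenhouse hold; scored 4–5 wk after treatment, 0–9 scale vs control; repeat tests averaged.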

[2] = test system: TRZAWR (Wheat, Winter, cv Riband); assay: Preemergence herbicidal evaluation; format: in vivo, Triticum aestivum; conditions: rated 4-5 weeks after treatment
How it was run: (§2)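 In this greenhouse assay, monocot and dicot seeds are planted in soil and treated prior to emergence with an aqueous acetone spray (about 0.0156-0.500 kg/ha). Plants are assessed visually against control on a 0-9 scale after 4-5 weeks.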

[3] = test system: CHEAL (Lambsquarters, Common); assay: Preemergence herbicidal evaluation; format: in vivo, Chenopodium album; conditions: rated 4-5 weeks after treatment
How it was run: as §2

[4] = test system: IPOHE (Morningglory, Ivyleaf); assay: Postemergence herbicidal evaluation; format: in vivo, Ipomoea hederacea; conditions: postemergence
How it was run: as §1

ABUTH (Velvetleaf) [5] = assay: Preemergence herbicidal evaluation; format: in vivo, Abutilon theophrasti; conditions: rated 4-5 weeks after treatment
How it was run: as §2

[6] = test system: CHEAL (Lambsquarters, Common); assay: Postemergence herbicidal evaluation; format: in vivo, Chenopodium album; conditions: postemergence
How it was run: as §1

CYPIR (Rice Flatsedge) = assay: Postemergence weed control under flooded paddy conditions; format: in vivo, Cyperus iria; conditions: postemergence weeds, rated 3 to 4 weeks after treatment
How it was run: (§3)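 Weeds 3 to 5 cm tall and rice seedlings at the 1.5 to 2.5 leaf stage were flooded, with water held 1.5 to 3 cm above the soil. Compounds in 50/50 v/v aqueous/acetone went into the flood water at about 0.0313 to 0.500 kg/ha. Visual 0-9 ratings versus control were made 3 to 4 weeks later.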

ECHCG (Barnyardgrass) [7] = assay: Postemergence herbicidal evaluation; format: in vivo, Echinochloa crus-galli; conditions: postemergence
How it was run: as §1

CYPSE (Flatsedge) = assay: Postemergence weed control under flooded paddy conditions; format: in vivo, Cyperus serotinus; conditions: postemergence weeds, rated 3 to 4 weeks after treatment
How it was run: as §3

[8] = test system: IPOHE (Morningglory, Ivyleaf); assay: Preemergence herbicidal evaluation; format: in vivo, Ipomoea hederacea; conditions: rated 4-5 weeks after treatment
How it was run: as §2

ZEAMX (Corn, Field) [9] = assay: Preemergence herbicidal evaluation; format: in vivo, Zea mays; conditions: rated 4-5 weeks after treatment
How it was run: as §2

ZEAMX (Corn, Field) [10] = assay: Postemergence herbicidal evaluation; format: in vivo, Zea mays; conditions: postemergence
How it was run: as §1

SETVI (Foxtail, Green) = assay: Postemergence herbicidal evaluation; format: in vivo, Setaria viridis; conditions: postemergence
How it was run: as §1

ECHCG (Barnyardgrass) [11] = assay: Preemergence herbicidal evaluation; format: in vivo, Echinochloa crus-galli; conditions: rated 4-5 weeks after treatment
How it was run: as §2

CASOB (Sicklepod) = assay: Preemergence herbicidal evaluation; format: in vivo, Cassia obtusifolia; conditions: rated 4-5 weeks after treatment
How it was run: as §2

[12] = test system: GLXMAW (Soybean, Williams); assay: Preemergence herbicidal evaluation; format: in vivo, Glycine max, (L.) Merr. cv Williams; conditions: rated 4-5 weeks after treatment
How it was run: as §2

ORYSAT (Rice, Tebonnet) = assay: Postemergence herbicidal evaluation; format: in vivo, Oryza sativa, (L.) Tebonnet; conditions: postemergence
How it was run: as §1

C[C@@H](C(=O)OC(C)(C)C)N1C(=O)CSC1=Nc1cc(-n2c(=O)cc(C(F)(F)F)n(C)c2=O)c(F)cc1Cl [Compound 75, tert-Butyl 2-{{2-chloro-5-[3,6-dihydro-3-methyl-2,6-dioxo-4-(trifluoromethyl)-1(2H)-pyrimidinyl]-4-fluorophenyl}imino}-α-methyl-4-oxo-3-thiazolidineacetate, L-]
ABUTH herbicidal rating (ABUTH (Velvetleaf) [1]; rate 0.0158 kg/ha): 9.0
ABUTH herbicidal rating (ABUTH (Velvetleaf) [1]; rate 0.0315 kg/ha): 9.0
ABUTH herbicidal rating (ABUTH (Velvetleaf) [1]; rate 0.0630 kg/ha): 9.0
Preemergence herbicidal rating TRZAWR ([2]; rate 0.0156 kg/ha): 0.0
Preemergence herbicidal rating TRZAWR ([2]; rate 0.0313 kg/ha): 0.0
Preemergence herbicidal rating TRZAWR ([2]; rate 0.0625 kg/ha): 0.0
Preemergence herbicidal rating TRZAWR ([2]; rate 0.1250 kg/ha): 1.0
Preemergence herbicidal rating TRZAWR ([2]; rate 0.2500 kg/ha): 2.0
Preemergence herbicidal rating CHEAL ([3]; rate 0.0156 kg/ha): 9.0
Preemergence herbicidal rating CHEAL ([3]; rate 0.0313 kg/ha): 9.0
Preemergence herbicidal rating CHEAL ([3]; rate 0.0625 kg/ha): 9.0
Preemergence herbicidal rating CHEAL ([3]; rate 0.1250 kg/ha): 9.0
Preemergence herbicidal rating CHEAL ([3]; rate 0.2500 kg/ha): 9.0
IPOHE herbicidal rating ([4]; rate 0.0158 kg/ha): 7.0
IPOHE herbicidal rating ([4]; rate 0.0315 kg/ha): 7.0
IPOHE herbicidal rating ([4]; rate 0.0630 kg/ha): 9.0
Preemergence herbicidal rating ABUTH (ABUTH (Velvetleaf) [5]; rate 0.0156 kg/ha): 0.0
Preemergence herbicidal rating ABUTH (ABUTH (Velvetleaf) [5]; rate 0.0313 kg/ha): 0.0
Preemergence herbicidal rating ABUTH (ABUTH (Velvetleaf) [5]; rate 0.0625 kg/ha): 9.0
Preemergence herbicidal rating ABUTH (ABUTH (Velvetleaf) [5]; rate 0.1250 kg/ha): 9.0
Preemergence herbicidal rating ABUTH (ABUTH (Velvetleaf) [5]; rate 0.2500 kg/ha): 9.0
CHEAL herbicidal rating ([6]; rate 0.0158 kg/ha): 7.0
CHEAL herbicidal rating ([6]; rate 0.0315 kg/ha): 7.0
CHEAL herbicidal rating ([6]; rate 0.0630 kg/ha): 7.0
Herbicidal rating CYPIR (CYPIR (Rice Flatsedge); Rate 0.0313 kg/ha): 0.0
Herbicidal rating CYPIR (CYPIR (Rice Flatsedge); Rate 0.0625 kg/ha): 0.0
Herbicidal rating CYPIR (CYPIR (Rice Flatsedge); Rate 0.1250 kg/ha): 6.0
Herbicidal rating CYPIR (CYPIR (Rice Flatsedge); Rate 0.2500 kg/ha): 6.0
ECHCG herbicidal rating (ECHCG (Barnyardgrass) [7]; rate 0.0158 kg/ha): 1.0
ECHCG herbicidal rating (ECHCG (Barnyardgrass) [7]; rate 0.0315 kg/ha): 1.0
ECHCG herbicidal rating (ECHCG (Barnyardgrass) [7]; rate 0.0630 kg/ha): 1.0
Herbicidal rating CYPSE (CYPSE (Flatsedge); Rate 0.0313 kg/ha): 2.0
Herbicidal rating CYPSE (CYPSE (Flatsedge); Rate 0.0625 kg/ha): 3.0
Herbicidal rating CYPSE (CYPSE (Flatsedge); Rate 0.1250 kg/ha): 3.0
Herbicidal rating CYPSE (CYPSE (Flatsedge); Rate 0.2500 kg/ha): 3.0
Preemergence herbicidal rating IPOHE ([8]; rate 0.0156 kg/ha): 0.0
Preemergence herbicidal rating IPOHE ([8]; rate 0.0313 kg/ha): 0.0
Preemergence herbicidal rating IPOHE ([8]; rate 0.0625 kg/ha): 0.0
Preemergence herbicidal rating IPOHE ([8]; rate 0.1250 kg/ha): 0.0
Preemergence herbicidal rating IPOHE ([8]; rate 0.2500 kg/ha): 2.0
Preemergence herbicidal rating ZEAMX (ZEAMX (Corn, Field) [9]; rate 0.0156 kg/ha): 0.0
Preemergence herbicidal rating ZEAMX (ZEAMX (Corn, Field) [9]; rate 0.0313 kg/ha): 0.0
Preemergence herbicidal rating ZEAMX (ZEAMX (Corn, Field) [9]; rate 0.0625 kg/ha): 0.0
Preemergence herbicidal rating ZEAMX (ZEAMX (Corn, Field) [9]; rate 0.1250 kg/ha): 1.0
Preemergence herbicidal rating ZEAMX (ZEAMX (Corn, Field) [9]; rate 0.2500 kg/ha): 3.0
ZEAMX herbicidal rating (ZEAMX (Corn, Field) [10]; rate 0.0158 kg/ha): 4.0
ZEAMX herbicidal rating (ZEAMX (Corn, Field) [10]; rate 0.0315 kg/ha): 4.5
ZEAMX herbicidal rating (ZEAMX (Corn, Field) [10]; rate 0.0630 kg/ha): 5.0
SETVI herbicidal rating (SETVI (Foxtail, Green); rate 0.0158 kg/ha): 1.0
SETVI herbicidal rating (SETVI (Foxtail, Green); rate 0.0315 kg/ha): 5.0
SETVI herbicidal rating (SETVI (Foxtail, Green); rate 0.0630 kg/ha): 3.0
Preemergence herbicidal rating ECHCG (ECHCG (Barnyardgrass) [11]; rate 0.0156 kg/ha): 0.0
Preemergence herbicidal rating ECHCG (ECHCG (Barnyardgrass) [11]; rate 0.0313 kg/ha): 0.0
Preemergence herbicidal rating ECHCG (ECHCG (Barnyardgrass) [11]; rate 0.0625 kg/ha): 0.0
Preemergence herbicidal rating ECHCG (ECHCG (Barnyardgrass) [11]; rate 0.1250 kg/ha): 0.0
Preemergence herbicidal rating ECHCG (ECHCG (Barnyardgrass) [11]; rate 0.2500 kg/ha): 2.0
Preemergence herbicidal rating CASOB (CASOB (Sicklepod); rate 0.0156 kg/ha): 0.0
Preemergence herbicidal rating CASOB (CASOB (Sicklepod); rate 0.0313 kg/ha): 0.0
Preemergence herbicidal rating CASOB (CASOB (Sicklepod); rate 0.0625 kg/ha): 0.0
Preemergence herbicidal rating CASOB (CASOB (Sicklepod); rate 0.1250 kg/ha): 1.0
Preemergence herbicidal rating CASOB (CASOB (Sicklepod); rate 0.2500 kg/ha): 1.0
Preemergence herbicidal rating GLXMAW ([12]; rate 0.0156 kg/ha): 0.0
Preemergence herbicidal rating GLXMAW ([12]; rate 0.0313 kg/ha): 0.0
Preemergence herbicidal rating GLXMAW ([12]; rate 0.0625 kg/ha): 0.0
Preemergence herbicidal rating GLXMAW ([12]; rate 0.1250 kg/ha): 2.0
Preemergence herbicidal rating GLXMAW ([12]; rate 0.2500 kg/ha): 2.0
ORYSAT herbicidal rating (ORYSAT (Rice, Tebonnet); rate 0.0158 kg/ha): 2.0
ORYSAT herbicidal rating (ORYSAT (Rice, Tebonnet); rate 0.0315 kg/ha): 2.5
ORYSAT herbicidal rating (ORYSAT (Rice, Tebonnet); rate 0.0630 kg/ha): 2.5

Source: US20020137929A1, “1 - (3-heterocyclylphenyl) isothiourea, -isourea, -guanidine and -amidine herbicidal agents” (Intellectual Property Department, BASF Aktiengesellschaft, priority 1998, published 2002)
